Test results from PubChem BioAssay (NCI).
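Where inhibition never reached the appropriate level, the endpoint shown equals the highest concentration tested. Otherwise, values were interpolated linearly from a five-concentration, 48-hour dose response in 96-well plates. Definition used: TGI = concentration required for complete inhibition of growth.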

What was measured:
Assay in all cases: NCI anticancer screen, dose series, 48 h
[1] = tested on: EKVX NSCLC
[2] = tested on: BT-549 breast
[3] = tested on: HCT-116 colon
[4] = tested on: SF-295 CNS
[5] = tested on: DU-145 prostate
[6] = tested on: TK-10 renal
[7] = tested on: SNB-19 CNS
[8] = tested on: SK-MEL-28 melanoma
[9] = tested on: U251 CNS
[10] = tested on: HS 578T breast
[11] = tested on: K-562 leukemia
[12] = tested on: HOP-92 NSCLC
[13] = tested on: KM12 colon
[14] = tested on: T-47D breast
[15] = tested on: HT29 colon
[16] = tested on: HCC-2998 colon
[17] = tested on: HOP-62 NSCLC
[18] = tested on: SK-OV-3 ovarian
[19] = tested on: ACHN renal
[20] = tested on: UACC-257 melanoma
[21] = tested on: OVCAR-8 ovarian
[22] = tested on: OVCAR-5 ovarian
[23] = tested on: SNB-75 CNS
[24] = tested on: MDA-N
[25] = tested on: SN12C renal
[26] = tested on: CCRF-CEM leukemia
[27] = tested on: 786-0 renal
[28] = tested on: CAKI-1 renal
[29] = tested on: NCI/ADR-RES ovarian
[30] = tested on: LOX IMVI melanoma
[31] = tested on: MALME-3M melanoma
[32] = tested on: NCI-H460 lung
[33] = tested on: M14 melanoma
[34] = tested on: UO-31 renal
[35] = tested on: IGROV1 ovarian
[36] = tested on: SF-268 CNS
[37] = tested on: SK-MEL-5 melanoma
[38] = tested on: MDA-MB-231 breast
[39] = tested on: RPMI-8226 leukemia
[40] = tested on: HCT-15 colon
[41] = tested on: OVCAR-4 ovarian
[42] = tested on: UACC-62 melanoma
[43] = tested on: RXF 393 renal
[44] = tested on: PC-3 prostate
[45] = tested on: SR leukemia
[46] = tested on: MDA-MB-435
[47] = tested on: SF-539 CNS
[48] = tested on: NCI-H226 lung
[49] = tested on: A498 renal
[50] = tested on: HL-60(TB) leukemia
[51] = tested on: SW-620 colon
[52] = tested on: A549 NSCLC
[53] = tested on: NCI-H522 lung
[54] = tested on: NCI-H23 lung
[55] = tested on: SK-MEL-2 melanoma
[56] = tested on: MCF7 breast
[57] = tested on: OVCAR-3 ovarian
[58] = tested on: COLO 205 colon

In the case of C/C(=N\Nc1nc2ccccc2n1C)c1cc2ccccc2cn1, the TGI [1] is reported as 5 µM, the TGI [2] is reported as 13.8 µM and the TGI [3] is reported as 5.83 µM. For the same compound, the TGI [4] was 5.39 µM, the TGI [5] was 8.08 µM and the TGI [6] was 6.86 µM. For the same compound, the TGI [7] was 14.6 µM, the TGI [8] was 16.6 µM and the TGI [9] was 4590 nM. It also gave a TGI [10] of 15.1 µM, a TGI [11] greater than 100 µM and a TGI [12] of 3.86 µM. It also gave a TGI [13] of 16.9 µM, a TGI [14] of 5.66 µM and a TGI [15] of 3540 nM. The TGI [16] was 41.9 µM, the TGI [17] was greater than 26.3 µM and the TGI [18] was 761 nM. The TGI [19] was 11.8 µM, the TGI [20] was 7.26 µM and the TGI [21] was 4240 nM. It also gave a TGI [22] of 21.6 µM, a TGI [23] of 11.8 µM and a TGI [24] of 16.6 µM. The TGI [25] was 3290 nM, the TGI [26] was greater than 54.3 µM and the TGI [27] was 3.82 µM. It also gave a TGI [28] of 12.5 µM, a TGI [29] of 1550 nM and a TGI [30] of 4330 nM. For the same compound, the TGI [31] was 3030 nM, the TGI [32] was 7.05 µM and the TGI [33] was 2810 nM. For the same compound, the TGI [34] was 5.03 µM, the TGI [35] was 423 nM and the TGI [36] was 11.7 µM. The TGI [37] was 12.4 µM, the TGI [38] was 3210 nM and the TGI [39] was 1630 nM. The TGI [40] was 20.7 µM, the TGI [41] was 13 µM and the TGI [42] was 940 nM. The TGI [43] was 7.7 µM, the TGI [44] was greater than 20700 nM and the TGI [45] was greater than 100 µM. For the same compound, the TGI [46] was 9.89 µM, the TGI [47] was 14.5 µM and the TGI [48] was 2220 nM. The TGI [49] was 1470 nM, the TGI [50] was 1410 nM and the TGI [51] was 11.3 µM. For the same compound, the TGI [52] was 27.1 µM, the TGI [53] was 4.67 µM and the TGI [54] was 7.4 µM.
In the case of COc1ccc2cc(CNCCCCCCNCc3ccc4cc(OC)ccc4c3)ccc2c1, the TGI [1] is reported as 2.74 µM, the TGI [2] is reported as 3.14 µM and the TGI [3] is reported as 0.324 µM. For the same compound, the TGI [4] was 0.961 µM, the TGI [5] was 2.99 µM and the TGI [6] was 3.28 µM. The TGI [55] was 2640 nM, the TGI [7] was 1.87 µM and the TGI [8] was 1.42 µM. The TGI [56] was 1200 nM, the TGI [9] was 601 nM and the TGI [10] was 3.62 µM. It also gave a TGI [13] of 0.511 µM, a TGI [57] of 1170 nM and a TGI [14] of 2.07 µM. For the same compound, the TGI [15] was 383 nM, the TGI [16] was 0.277 µM and the TGI [17] was 3.07 µM. It also gave a TGI [18] of 3240 nM, a TGI [19] of 2.92 µM and a TGI [20] of 3.34 µM. For the same compound, the TGI [21] was 1150 nM, the TGI [22] was 2.03 µM and the TGI [23] was 2.66 µM. It also gave a TGI [58] of 291 nM, a TGI [24] of 0.36 µM and a TGI [25] of 2670 nM. For the same compound, the TGI [27] was 2.48 µM, the TGI [28] was 2.71 µM and the TGI [29] was 2740 nM. It also gave a TGI [30] of 325 nM, a TGI [31] of 2620 nM and a TGI [32] of 0.94 µM. It also gave a TGI [33] of 315 nM, a TGI [34] of 3.01 µM and a TGI [35] of 3150 nM. It also gave a TGI [37] of 2.67 µM, a TGI [38] of 1380 nM and a TGI [40] of 1.39 µM. It also gave a TGI [42] of 2800 nM, a TGI [43] of 3.07 µM and a TGI [44] of 918 nM. The TGI [46] was 0.497 µM, the TGI [47] was 3.05 µM and the TGI [48] was 3490 nM. The TGI [49] was 2990 nM, the TGI [50] was 396 nM and the TGI [51] was 0.351 µM. It also gave a TGI [52] of 3.44 µM, a TGI [53] of 1.76 µM and a TGI [54] of 3.8 µM.
